In patent US20230265151A1, “GIP/GLP1 CO-AGONIST COMPOUNDS” (priority 2020, published 2023) one finds Emax, EC50 and Ki data, which are given here for two molecules.

SMILES strings stand for the structures. Where two headings read alike, the source gives them in different places.

For one assay, the target named is T1, hGIPR (Homo sapiens, UniProt P48546).
T1 construct: expressed in transfected cells
T1 sequence (P48546 22-466): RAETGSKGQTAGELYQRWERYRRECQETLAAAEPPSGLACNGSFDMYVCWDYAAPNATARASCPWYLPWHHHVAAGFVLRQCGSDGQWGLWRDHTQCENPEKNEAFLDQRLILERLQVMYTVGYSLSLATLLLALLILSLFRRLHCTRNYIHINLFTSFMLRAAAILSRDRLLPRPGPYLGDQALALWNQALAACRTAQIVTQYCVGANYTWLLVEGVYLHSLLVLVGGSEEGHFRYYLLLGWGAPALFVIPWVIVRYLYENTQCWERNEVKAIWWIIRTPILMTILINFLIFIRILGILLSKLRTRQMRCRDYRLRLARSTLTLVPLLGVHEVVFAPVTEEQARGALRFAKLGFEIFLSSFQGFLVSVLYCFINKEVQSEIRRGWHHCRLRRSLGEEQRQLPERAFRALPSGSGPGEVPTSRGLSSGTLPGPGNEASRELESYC
Briefly: Functional cAMP formation (HTRF) in HEK-293 clonal cells expressing hGIPR, 0.1% bovine casein, without or with 1.0% human serum albumin. The assay is classed as cell-based. To be noted: for Emax: percent of maximal response to GIP(1-42)NH2; for EC50: cAMP. A digest of the protocol: (§1)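 Readings of the HTRF 665/620 nm ratio, which falls as cAMP rises, were converted to nM cAMP using a standard curve after 30 min peptide exposure at 37° C.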

The target in assay [1] is T2, human GIP receptor (hGIPR) (Homo sapiens, UniProt P48546).
T2 construct: expressed in transfected cells; crude membranes
T2 sequence (P48546 22-466): T1 sequence (P48546 22-466)
Kind of assay: [125I]-GIP binding, SPA with membranes of CHO cells expressing hGIPR. The procedure: Two methods are used for the preparation of crude cell membranes.
Method 1: Frozen cell pellets are lysed on ice in hypotonic buffer containing 50 mM Tris HCl, pH 7.5, and Roche Complete™ Protease Inhibitors with EDTA. […] The homogenate is centrifuged at 4° C. at 1100 × g for 10 minutes. The supernatant is collected and stored on ice while the pellets are resuspended in homogenization buffer and rehomogenized as described above. The homogenate is centrifuged at 1100 × g for 10 minutes. The second supernatant is combined with the first supernatant and centrifuged at 35000 × g for 1 hour at 4° C. The resulting membrane pellet is resuspended in homogenization buffer containing protease inhibitors at approximately 1 to 3 mg/mL, quick frozen in liquid nitrogen and stored as aliquots in a -80° C. freezer until use.
The homogenate is centrifuged at 4° C. at 1800 × g for 15 minutes. The supernatant is collected and stored on ice while the pellets are resuspended in homogenization buffer (without DNAse I) and rehomogenized as described above. The homogenate is centrifuged at 1800 × g for 15 minutes. The second supernatant is combined with the first supernatant and centrifuged an additional time at 1800 × g for 15 minutes. The overall supernatant is then centrifuged at 25000 × g for 30 minutes at 4° C. The resulting membrane pellet is resuspended in homogenization buffer (without DNAse I) containing protease inhibitors at approximately 1 to 3 mg/mL and stored as aliquots in a -80° C. freezer until use.
The binding buffer contains 25 mM HEPES, pH 7.4, 2.5 mM CaCl2, 1 mM MgCl2, 0.1% (w/v) bacitracin, 0.003% (w/v) TWEEN®-20, and Roche Complete™ Protease Inhibitors without EDTA. Peptides and GIP are thawed and 3 fold serially diluted in 100% DMSO (10 point concentration response curves). […] Plates are sealed and mixed on a plate shaker (setting 6) for 1 minute and read with a PerkinElmer Trilux MicroBeta® scintillation counter after 2.5 to 12 hours of incubation/settling time at room temperature.
Raw CPM data for concentration curves of peptides, Gcg, GLP-1, or GIP are converted to percent inhibition by subtracting nonspecific binding (binding in the presence of excess unlabeled Gcg, GLP-1, or GIP, respectively) from the individual CPM values and dividing by the total binding signal, also corrected by subtracting nonspecific binding. Data are analyzed using four-parameter (curve maximum, curve minimum, IC50, Hill slope) nonlinear regression routines (Genedata Screener, version 12.0.4, Genedata AG, Basal, Switzerland). […] Values for Ki are reported as the geometric mean, with error expressed as the standard error of the mean (SEM) and n is equal to the number of independent replicates (determined in assays performed on different days). Geometric Means are calculated as follows: […]
The Ki Ratio (Ki for native control peptide/Ki for test compound) at each receptor and each species is calculated. The Ki Ratio is a rapid indication of the apparent affinity of a peptide compared to the native control peptide.
n=⅟x means that only one value out of the total number of replicates (x) is used to express the mean. SEM is only calculated when n=2 or greater non-qualified results exist. Means are expressed as GeoMetric means with the standard error of the mean (SEM) and the number of replicates (n) indicated in parenthesis.

For the next assay, the target named is hGLP-1R (Homo sapiens, UniProt P43220). Kind of assay: Functional cAMP formation (HTRF) in HEK-293 clonal cells expressing hGLP-1R, 0.1% bovine casein, without or with 1.0% human serum albumin. In kind it is cell-based. As to conditions: cAMP, 37° C., 0.1% bovine casein (no human serum albumin), geometric mean. Set-up: expressed in transfected cells. The method, boiled down: as §1

The next assay deals with T3, hGCGR (Homo sapiens, UniProt P47871).
T3 construct: expressed in transfected cells
Briefly: Functional cAMP formation (HTRF) in HEK-293 clonal cells expressing hGCGR, 0.1% bovine casein, without or with 1.0% human serum albumin. The assay is classed as cell-based. To be noted: cAMP, 37° C. The method, boiled down: as §1
(cAMP levels reflect the balance of adenylyl cyclase and phosphodiesterase activity.)

As a reminder, the Emax is the size of the effect at its maximum, as opposed to the concentration needed. As usually defined, the EC50 is the concentration needed to bring the measured effect to its halfway point. A word on the Ki: it is the dissociation constant of the complex between target and ligand, obtained from inhibition or displacement.

T3 sequence (P47871 26-477): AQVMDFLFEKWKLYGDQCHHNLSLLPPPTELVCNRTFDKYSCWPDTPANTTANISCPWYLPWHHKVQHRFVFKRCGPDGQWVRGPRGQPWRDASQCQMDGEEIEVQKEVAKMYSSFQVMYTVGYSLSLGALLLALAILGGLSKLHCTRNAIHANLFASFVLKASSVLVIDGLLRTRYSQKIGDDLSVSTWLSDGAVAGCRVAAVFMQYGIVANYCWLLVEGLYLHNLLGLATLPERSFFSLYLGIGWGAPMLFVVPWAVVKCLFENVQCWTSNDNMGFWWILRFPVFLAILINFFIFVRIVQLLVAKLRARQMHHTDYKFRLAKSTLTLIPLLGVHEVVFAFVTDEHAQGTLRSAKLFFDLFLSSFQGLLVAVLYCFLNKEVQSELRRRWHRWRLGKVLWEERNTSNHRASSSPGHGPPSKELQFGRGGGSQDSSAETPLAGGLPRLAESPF
Chain of hGLP-1R (P43220 24-463): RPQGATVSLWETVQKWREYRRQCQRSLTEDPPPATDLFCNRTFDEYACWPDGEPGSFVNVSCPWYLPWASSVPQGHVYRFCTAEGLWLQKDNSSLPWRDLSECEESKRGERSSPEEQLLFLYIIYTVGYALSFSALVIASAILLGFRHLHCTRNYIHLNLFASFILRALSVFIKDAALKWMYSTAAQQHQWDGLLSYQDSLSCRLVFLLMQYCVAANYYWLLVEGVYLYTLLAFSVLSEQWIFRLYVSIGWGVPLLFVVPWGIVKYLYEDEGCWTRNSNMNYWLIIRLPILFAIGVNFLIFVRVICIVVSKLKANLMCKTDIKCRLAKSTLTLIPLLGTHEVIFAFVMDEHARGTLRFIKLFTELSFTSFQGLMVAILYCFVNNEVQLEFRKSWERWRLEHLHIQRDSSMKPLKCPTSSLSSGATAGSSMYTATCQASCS

Take `CC[C@H](C)[C@H](NC(=O)[C@H](CC(C)C)NC(=O)[C@](C)(Cc1ccc(O)cc1)NC(=O)[C@H](CCCCNC(=O)COCCOCCNC(=O)COCCOCCNC(=O)CC[C@H](NC(=O)CCCCCCCCCOc1ccc(C(=O)O)cc1)C(=O)O)NC(=O)[C@@H](NC(=O)[C@H](Cc1ccccc1)NC(=O)[C@H](CCC(=O)O)NC(=O)C(C)(C)NC(=O)[C@H](CCC(N)=O)NC(=O)[C@H](C)NC(=O)[C@H](CCC(N)=O)NC(=O)[C@H](CCCN)NC(=O)[C@H](CC(=O)O)NC(=O)[C@H](CC(C)C)NC(=O)[C@](C)(CC(C)C)NC(=O)[C@@H](NC(=O)C(C)(C)NC(=O)[C@H](Cc1ccncc1)NC(=O)[C@H](CC(=O)O)NC(=O)[C@H](CO)NC(=O)[C@@H](NC(=O)[C@](C)(Cc1ccccc1F)NC(=O)[C@@H](NC(=O)CNC(=O)[C@H](CCC(=O)O)NC(=O)C(C)(C)NC(=O)[C@@H](N)Cc1ccc(O)cc1)[C@@H](C)O)[C@@H](C)O)[C@@H](C)CC)[C@@H](C)CC)C(=O)N[C@@H](CCCCNC(=O)COCCOCCNC(=O)COCCOCCNC(=O)CC[C@H](NC(=O)CCCCCCCCCOc1ccc(C(=O)O)cc1)C(=O)O)C(=O)NCC(=O)NCC(=O)N1CCC[C@H]1C(=O)N[C@@H](CO)C(=O)N[C@@H](CO)C(=O)NCC(=O)N[C@@H](C)C(=O)N1CCC[C@H]1C(=O)N1CCC[C@H]1C(=O)N1CCC[C@H]1C(=O)N[C@@H](CO)C(N)=O` [Example 403]: the Emax turned out to be 91.7% at hGIPR (HEK293, read-out: hGIPR Emax, % ± SEM, cAMP, 37° C., 0.1% bovine casein and 1.0% human serum albumin); 98.1% at hGIPR (HEK293, read-out: hGIPR Emax, % ± SEM, cAMP, 37° C., 0.1% bovine casein, arithmetic mean). In addition, the EC50 on hGIPR (hGIPR EC50, nM (SEM, n), 37° C., 0.1% bovine casein (no human serum albumin), geometric mean) was 0.00939 nM; at hGLP-1R (hGLP-1R EC50, nM (SEM, n)), 0.175 nM; at hGCGR (hGCGR EC50, nM (SEM, n), 0.1% bovine casein (no human serum albumin), geometric mean) it was > 9950 nM; on hGCGR (hGCGR EC50, nM (SEM, n), 0.1% bovine casein and 1.0% human serum albumin, geometric mean (SEM, n)), > 9950 nM. Also, in assay [1], the Ki was 0.0375 nM.
Turning to `CC[C@H](C)[C@H](NC(=O)[C@H](CC(C)C)NC(=O)[C@](C)(Cc1ccc(O)cc1)NC(=O)[C@H](CCCCNC(=O)COCCOCCNC(=O)COCCOCCNC(=O)CC[C@H](NC(=O)CCCCCCCCCCCCC(=O)O)C(=O)O)NC(=O)[C@@H](NC(=O)[C@H](Cc1ccccc1)NC(=O)[C@H](CCCN)NC(=O)C(C)(C)NC(=O)[C@H](CCC(N)=O)NC(=O)[C@H](C)NC(=O)[C@H](CCC(N)=O)NC(=O)[C@H](CCCN)NC(=O)[C@H](CC(=O)O)NC(=O)[C@H](CC(C)C)NC(=O)[C@](C)(CC(C)C)NC(=O)[C@@H](NC(=O)C(C)(C)NC(=O)[C@@H](NC(=O)[C@H](CC(=O)O)NC(=O)[C@H](CO)NC(=O)[C@@H](NC(=O)[C@](C)(Cc1ccccc1F)NC(=O)[C@@H](NC(=O)CNC(=O)[C@H](CCC(=O)O)NC(=O)C(C)(C)NC(=O)[C@@H](N)Cc1ccc(O)cc1)[C@@H](C)O)[C@@H](C)O)C(C)C)[C@@H](C)CC)[C@@H](C)CC)C(=O)N[C@@H](CCCCNC(=O)COCCOCCNC(=O)COCCOCCNC(=O)CC[C@H](NC(=O)CCCCCCCCCCCCC(=O)O)C(=O)O)C(=O)NCC(=O)NCC(=O)N1CCC[C@H]1C(=O)N[C@@H](CO)C(=O)N[C@@H](CO)C(=O)NCC(=O)N[C@@H](C)C(=O)N1CCC[C@H]1C(=O)N1CCC[C@H]1C(=O)N1CCC[C@H]1C(=O)N[C@@H](CO)C(N)=O` [Example 448], the Emax on hGIPR (HEK293, cAMP, 37° C., 0.1% bovine casein, arithmetic mean, read-out: hGIPR Emax, % ± SEM) turned out to be 105%. Besides, the EC50 at hGIPR (37° C., 0.1% bovine casein (no human serum albumin), geometric mean, read-out: hGIPR EC50, nM (SEM, n)) is 0.0164 nM; at hGIPR (37° C., 0.1% bovine casein and 1.0% human serum albumin, geometric mean (SEM, n), read-out: hGIPR EC50, nM (SEM, n)), 1.41 nM; at hGLP-1R (read-out: hGLP-1R EC50, nM (SEM, n)), 0.157 nM; at hGCGR (0.1% bovine casein (no human serum albumin), geometric mean, read-out: hGCGR EC50, nM (SEM, n)), > 9950 nM; on hGCGR (0.1% bovine casein and 1.0% human serum albumin, geometric mean (SEM, n), read-out: hGCGR EC50, nM (SEM, n)) it was > 9950 nM. In addition, the Ki in assay [1] (human GIPR, geometric mean (SEM, n), read-out: Binding Affinity Ki, nM (SEM, n) hGIPR) came out at 0.0314 nM.
